Source: patent US20250163057A1, “DCN-1 MODULATING COMPOUNDS AND METHODS OF USE THEREOF” (Cellarity, Inc., priority 2023, published 2025)

Tests used:
[1] = test system: fetal hemoglobin protein (HbF) in human erythroid progenitor cells; assay: Humanized mouse model: HbF protein in bone marrow by AlphaLISA; assay type: in vivo, NBSGW mice reconstituted with human CD34+ cells; settings: humanized mouse model, human erythroid progenitor cells, dose not given at this place
From the text: (§1) Results: To evaluate induction of target cell activity in the bone marrow, a humanized mouse model was developed. This model entails the reconstitution of human hematopoietic progenitor cells within the bone marrow of immunodeficient nonirradiated NOD.Cg-KitW-41J Tyr^+ Prkdc^scid Il2rg^tmlwjl/ThomJ (NBSGW) strain recipient mice. These mice are competent to engraft and differentiate human erythroid progenitor cells that express human adult hemoglobin mRNA and protein subunits within bone marrow.
(§2) Based on these exposure results, humanized mice were treated with either the clinical standard of care compound, hydroxyurea (50 mg/kg; bid), or I-73, at 25 and 100 mg/kg (bid), by oral gavage over a three-week period. At the end of the treatment period, bone marrow was harvested for flow cytometry, as well as for assessment of HbF protein and fetal hemoglobin (HBG1) mRNA levels. Levels of both HbF protein and HBG1 mRNA were normalized to the percentage of human erythroid progenitor cells in the bone marrow of each mouse as determined by immunofluorescence staining for human Glycophorin A cell membrane expression. […] In addition, relative levels of fetal hemoglobin to those of potentially sickling-prone adult hemoglobin (HBB) was assessed.
(§3) Female, 6-week-old NOD.Cg-Kit^W-41J Tyr^+ Prkdc^scid Il2rg^tm1Wjl/ThomJ (NBSGW) mice (Jackson Laboratory strain #[…]) were used for these studies. The mice were acclimatized to laboratory conditions for 5 days prior to inoculation.
(§4) GCSF-mobilized human CD34+ cells were removed from liquid nitrogen storage, thawed in a 37° C. water bath and transferred quickly into a 50 mL conical tube. Cryovial was rinsed once with thaw buffer, 0.1% BSA in phosphate buffered saline (PBS), and buffer was transferred and combined with the original contents in the 50 mL conical tube. Next, doubling volumes of thaw buffer was added to the conical and gently swirled for ˜30 seconds to one minute until the volume in the conical was 32 mL. Cells and buffer were centrifuged at 300G for 8 minutes, and the supernatants were aspirated. Cells were counted by resuspending in 1 mL of thawing buffer per million of cells to a target concentration range of 0.5 to 2M/ml and counting with AOPI (1:1) on a luna cell counter to confirm the concentration of cells/mL. The cell concentration was adjusted to 3×10^6 cells/ml. For each mouse, 300 thousand cells in 0.1 ml were injected into the tail vein with a 25-gauge needle.
(§5) On day 56 after human cell adoptive transfer, whole blood was collected from each mouse by submandibular bleed and a 100 μL sample of EDTA whole blood was transferred to a 2 ml tube containing 1.8 mL ACK Lysing Buffer at room temperature (RT), and then inverted to mix. Samples were incubated at RT for 15 min in the dark to lyse. After lysis, samples are centrifuged at 500×g for 5 minutes at RT to enable supernatant decanting. Remaining cells were washed with 1 mL of PBS-0.5% BSA and centrifuged at 500×g for 5 minutes at 4° C. Supernatant was decanted and cells were stained with leukocyte markers (human and mouse CD45 antibodies; BD347464, BD557659) to confirm human cell engraftment. Mice having less than one percent, or greater than ten percent, human CD45 positive cells were excluded from the subsequent study. Remaining mice were then randomized into treatment groups based on percentage of human cell engraftment. Each treatment group included 10-11 mice.
(§6) Compound I-73 was dissolved in a 5% Cremophor RH40, 20% hydroxylpropyl-β-cyclodextrin solution. Hydroxyurea was solubilized in PBS. Formulations were prepared fresh daily. Commencing on day 84 post human cell engraftment, mice were treated by oral gavage with either I-73, hydroxyurea or their respective vehicles, for a period of three weeks using either once daily (QD) or twice daily (BID) dosing regimens. Mice were monitored daily for body weight and condition. […]

[2] = test system: fetal hemoglobin gene expression (HBG1) in human erythroid progenitor cells; assay: Humanized mouse model: fetal hemoglobin mRNA (HBG1, HBB) in bone marrow by Nanostring; assay type: in vivo, NBSGW mice reconstituted with human CD34+ cells; settings: humanized mouse model, human erythroid progenitor cells, dose not given at this place
From the text: as §1, §2, §3, §4, §5, §6

[3] = test system: HBG1 mRNA and HbF protein in bone marrow cells; assay: Induction of fetal hemoglobin by hydroxyurea and I-73 in human CD34+ cell reconstituted immunodeficient mice, with analysis of synergistic effect; assay type: in vivo, NBSGW mice engrafted with human CD34+ cells
Experimental: The model employed for assessment of induction of fetal hemoglobin by I-73 and hydroxyurea involved the use of human stem cell-reconstituted immunodeficient mice. Specifically, three hundred thousand human CD34-positive cells from G-CSF-mobilized human peripheral blood […] (PBMCs) were injected into the tail veins of NOD.Cg-KitW-41J Tyr+Prkdcscid Il2rgtm1Wjl/ThomJ (NBSGW) mice (JAX Strain No. 026622) on day 0. Twelve weeks later, mice were checked for human cell engraftment by sampling PBMCs from blood taken from the tail vein and staining for expression of murine or human CD45 by flow cytometry. After removing from the study those mice having greater than 10% human cells or less than 1% human cells in their peripheral blood, the remaining mice were randomized into treatment groups based on the human cell percentage. Thirteen weeks post engraftment, treatment was initiated with either hydroxyurea, I-73, or a combination of both compounds. Hydroxyurea was formulated in PBS (pH 7.4) and I-73 was formulated in 5% Cremophor RH 40/20% hydroxypropyl-β-cyclodextrin (Crem-CD) daily. Mice received either PBS or hydroxyurea each morning and I-73 or Crem-CD each afternoon by oral gavage. After twenty days of daily treatment, the mice were euthanized and their bone marrow (femurs, tibia and critae) were individually collected for subsequent analysis.
Bone marrow cell pellets (total 500K cells) were lysed in 20 μL of RLT (QIAGEN, 79216) with 1×β-mercaptoethanol (Gibco, 21985-023) and H2O followed by hybridizations. Hybridizations were done in a total volume of 15 μL [3 μL of RNA lysate added to master mix of 12 μL probe A/B (purchased from IDT), capture probe/reporter probes (NanoString™, XT TagSet-24, 121000602), proteinase K (Fisher Scientific, E00491) and H2O suspended in hybridization buffer]. Samples were hybridized at 65° C. for 22 hr. Following hybridization, the tripartide complexes were purified, immobilized by nCounter Prep Station and imaged by Digital Analyzer (nCounter MAX/FLEX Analysis System), to generate digital counts of barcodes corresponding to each target in the multiplexed reaction. Labeled barcodes obtained from unamplified extracts were counted at 555 images or field of view (FOV). The barcode counts for each sample were recorded in Reporter Code Count (RCC) files that are imported into nSolver analysis software (provided with CodeSet by NS) for quality control evaluation.
To assess levels of fetal hemoglobin by AlphaLISA, cells (200 k bone marrow cells/well) were lysed by resuspending pellets in 200 μL of lysis buffer plus protease inhibitor cocktail (100×), mixed well and incubating at room temperature for 30 minutes on the plate shaker @300 RPMs. Samples were then diluted 1:10 in a new 96-well round bottom plate by taking 10 uL of lysate and adding 90 μL of AlphaLISA immunoassay buffer. To create the “reaction plate”, 20 μL of Acceptor Beads (50 ug/mL final concentration) was added to each well using a multi-channel pipet. 10 uL of diluted cell lysate was added to the wells and mixed well. 20 μL of AlphaLISA immunoassay buffer was added to each well. Biotinylated antibody (final concentration) was then added to each well. The reaction plate on then placed on a plate shaker at 300 rpm for one hour to incubate at room temperature. After the first incubation was complete, 50 μL of Donor Beads ([…] final concentration) was added to each well and mixed well, keeping the plate in the dark. The covered plate was placed on a shaker at 350 rpm for 30 minutes to incubate at room temperature. After incubation, all 100 uL in each to an AlphaPlate in the dark. Plates were read on a VictorNIVO using the “Alpha 96 Well” setting. Alpha reading was programmed as the default setting with emission at 700 ms and 575/110n. […]

NC(=O)NO [hydroxyurea]
induction of fetal hemoglobin protein (HbF) [1]: demonstrated to induce | induction of fetal hemoglobin protein (HbF) ([1]; listed as Hydroxyurea): significantly induces | induction of fetal hemoglobin mRNA (HBG1) [2]: demonstrated to induce | induction of fetal hemoglobin mRNA (HBG1) ([2]; listed as Hydroxyurea): significantly induces | average increase of HbF % over vehicle ([3]; HU 75 mg/kg alone, WLS ANOVA estimate): 0.59 | percentage of bone marrow cells expressing the erythroid cell marker glycophorin A ([3]; alone or in combination with I-73): dose-dependent increase | percentage of HbF protein by HPLC in GlyA-positive bone marrow cells ([3]; compared with vehicle treatment group, FIG. 7): significant increase | percentage of bone marrow cells expressing human CD45 ([3]; in vivo): did not alter | HbF level on a per erythroid progenitor (GlyA-positive) cell basis by AlphaLISA ([3]; treatment alone): less HbF induction
